Measurements from PubChem BioAssay (NCI).
Values joined by “and” are separate entries in the source; they are usually repeats but may differ in a detail not shown here. Equal values may be shown once.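 48-hour exposure; five concentrations; linearly interpolated endpoints. Abbreviation: GI50, concentration required for 50% inhibition of growth. TGI denotes the concentration required for complete inhibition of growth.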

Legend:
Test in all cases: inhibition of tumour cell growth, NCI panel, 48 h
786-0 renal = tested on: 786-0 renal
A549 NSCLC = tested on: A549 NSCLC
COLO 205 colon = tested on: COLO 205 colon
HCT-116 colon = tested on: HCT-116 colon
HCT-15 colon = tested on: HCT-15 colon
IGROV1 ovarian = tested on: IGROV1 ovarian
KM12 colon = tested on: KM12 colon
RPMI-8226 leukemia = tested on: RPMI-8226 leukemia
SK-MEL-28 melanoma = tested on: SK-MEL-28 melanoma
SK-MEL-5 melanoma = tested on: SK-MEL-5 melanoma

| SMILES | GI50 (786-0 renal) | TGI (786-0 renal) | GI50 (A549 NSCLC) | TGI (A549 NSCLC) | GI50 (COLO 205 colon) | TGI (COLO 205 colon) | GI50 (HCT-116 colon) | TGI (HCT-116 colon) | GI50 (HCT-15 colon) | TGI (HCT-15 colon) | GI50 (IGROV1 ovarian) | TGI (IGROV1 ovarian) | GI50 (KM12 colon) | TGI (KM12 colon) | GI50 (RPMI-8226 leukemia) | TGI (RPMI-8226 leukemia) | GI50 (SK-MEL-28 melanoma) | TGI (SK-MEL-28 melanoma) | GI50 (SK-MEL-5 melanoma) | TGI (SK-MEL-5 melanoma) |
| --- | --- | --- | --- | --- | --- | --- | --- | --- | --- | --- | --- | --- | --- | --- | --- | --- | --- | --- | --- | --- |
| COc1ccc(C2=NN(C(=O)c3cc(OC)c(OC)c(OC)c3)C(c3ccc(Cl)cc3)C2)cc1OC (stereo not given) | 2.14 µM | 27.5 µM | 4.03 µM | > 100 µM | 2.44 µM | > 100 µM | 2.04 µM | 19.7 µM | 1.79 µM | > 100 µM | 2.11 µM | 40 µM | 1.77 µM | > 100 µM | 0.535 µM | > 100 µM | 1.65 µM | > 55.9 µM | 0.549 µM | 15.6 µM |
| COC(=O)C1=C(C(=O)OC)C23CC1C1C(C(=O)OC)=C(C(=O)OC)C12C1C=CC3C2C(=O)OC(=O)C21 (stereo not given) | – | > 100 µM | – | > 100 µM | – | 64.9 µM | – | > 100 µM | – | > 100 µM | – | > 100 µM | – | > 100 µM | – | > 100 µM | – | > 100 µM | – | > 100 µM |
| CN1CCN(c2ccc3nc(-c4c(N)c5c(F)cccc5[nH]c4=O)[nH]c3c2)CC1 | 1.2 µM and 0.695 µM and 0.946 µM | 3.93 µM and > 3.84 µM and 3.07 µM | 0.594 µM and 0.451 µM and 0.674 µM | 2.15 µM and > 3.74 µM and 3.86 µM | 0.965 µM and 0.496 µM and 2.26 µM | 2.31 µM and > 2.04 µM and 17.2 µM | 0.619 µM and 0.466 µM and 0.992 µM | 1.93 µM and 4.35 µM and 2.4 µM | 0.495 µM and 0.419 µM and 0.485 µM | 5.43 µM and > 7.05 µM and 7.76 µM | 0.325 µM and 0.272 µM and 0.302 µM | 4.94 µM and > 3.98 µM and 11.8 µM | 0.0357 µM and 0.0406 µM and 0.0407 µM | 2.07 µM and > 3.51 µM and 7.5 µM | 1.17 µM and 0.909 µM and 1.57 µM | 3.74 µM and > 2.77 µM and 4.53 µM | 1.51 µM and 0.801 µM and 1.43 µM | 2.96 µM and 2.79 µM and 3.02 µM | 1.33 µM and 0.604 µM and 1.72 µM | 2.64 µM and 1.29 µM and 3.16 µM |
| Cc1ccc(C)c(NC(=O)NCc2ccc(Cl)cc2)c1 | – | > 90.3 µM | – | > 100 µM | – | > 100 µM | – | > 100 µM | – | > 100 µM | – | > 100 µM | – | > 100 µM | – | > 100 µM | – | > 100 µM | – | > 100 µM |
| COC(=O)[C@]12CC[C@@H](C)[C@H](C)[C@@H]1C1=CC[C@@H]3[C@@]4(C)C(C=O)=C[C@@](C)(COC(=O)c5ccco5)[C@@H]4C(=O)C[C@@]3(C)[C@]1(C)CC2 | 7.81 µM | > 100 µM | 3.99 µM | > 100 µM | 0.0314 µM | 0.0971 µM | 3.68 µM | > 100 µM | 3.96 µM | > 100 µM | 7.66 µM | > 100 µM | 4.26 µM | > 100 µM | 2.06 µM | 6.68 µM | 0.0524 µM | > 100 µM | 0.294 µM | 1.45 µM |
| C[C@@H]1CC[C@@H]2[C@@H]1[C@H](OC(=O)/C=C/c1ccccc1)[C@]1(C3CCCCC3)C[C@@H](NC(=O)CO)[C@@]2(C)O1 | 14.9 µM | 29.3 µM | 21 µM | 37 µM | 16.6 µM | 33.5 µM | 19.5 µM | 34.2 µM | 15.8 µM | 33.2 µM | 17.9 µM | 35.5 µM | 16.3 µM | 32 µM | 20.8 µM | 44.4 µM | 16.9 µM | 33 µM | 15.3 µM | 29 µM |
| O=C(Nc1ccc(Oc2ccc3nc(NC(=O)c4ccccc4)[nH]c3c2)cc1)Nc1cc(C(F)(F)F)ccc1F | 7.32 µM | > 25 µM | 0.846 µM | 13.3 µM | 1.12 µM | 6.7 µM | 1.09 µM | > 18.1 µM | 2.07 µM | > 25 µM | 1.47 µM | > 21.1 µM | 0.244 µM | 2 µM | 0.792 µM | 3.86 µM | 1.61 µM | 12.9 µM | 0.543 µM | 1.83 µM |
| CCOC(=O)/C=C/c1cc2cc(-c3csc4ccccc34)ccc2[nH]1 | 11.3 µM | 26.9 µM | 4.39 µM | 18.1 µM | 7.16 µM | 21.3 µM | 2.96 µM | 31.4 µM | 3.59 µM | 15.8 µM | 4.62 µM | 17.4 µM | 2.67 µM | 7.93 µM | 2.87 µM | 12.3 µM | 10.1 µM | 21.6 µM | 4.52 µM | 16.6 µM |
| CNC(=O)c1ccc2cc(C3(O)CCn4cncc43)ccc2c1 (stereo not given) | > 100 µM | > 100 µM | > 100 µM | > 100 µM | > 100 µM | > 100 µM | > 100 µM | > 100 µM | > 100 µM | > 100 µM | > 100 µM | > 100 µM | > 100 µM | > 100 µM | > 100 µM | > 100 µM | > 100 µM | > 100 µM | > 100 µM | > 100 µM |
| COc1ccc2c(c1)C(=O)c1c-2c(Nc2ccc(C(C)=O)cc2)nc2ccccc12 | 12.3 µM | 32.2 µM | 37.2 µM | > 100 µM | > 100 µM | > 100 µM | 4.17 µM | 19.2 µM | > 100 µM | > 100 µM | 22.9 µM | 92.8 µM | > 100 µM | > 100 µM | 89.5 µM | > 100 µM | 52.2 µM | > 100 µM | 48.3 µM | > 100 µM |
| COc1ccc(-c2nn(-c3cccc(NC(=O)c4ccc5c(c4)OCCO5)c3)cc2-c2ccncc2)cc1Cl | 1.78 µM | 5.91 µM | 2.98 µM | 77.5 µM | 1.84 µM | 4.64 µM | 2.03 µM | 14.5 µM | 1.61 µM | 22.5 µM | 5.86 µM | 57.2 µM | 1.39 µM | 6.76 µM | 1.36 µM | 6.65 µM | 1.9 µM | 11.6 µM | 0.968 µM | 3.3 µM |
| O=S(=O)(O)c1ccc(-c2nnc(-c3ccccn3)nc2-c2ccc(S(=O)(=O)O)o2)o1 | – | > 100 µM | – | > 100 µM | – | > 100 µM | – | > 100 µM | – | > 100 µM | – | > 100 µM | – | > 100 µM | – | > 100 µM | – | > 100 µM | – | > 100 µM |
| O=P(NC12CC3CC(CC(C3)C1)C2)(N1CC1)N1CC1 | – | > 100 µM | – | > 100 µM | – | > 100 µM | – | > 100 µM | – | > 100 µM | – | > 100 µM | – | > 100 µM | – | > 100 µM | – | > 100 µM | – | > 100 µM |
| COc1ccc(N=Nc2c(-c3ccccc3)nn(C(=O)CC(=O)Nc3cccc(Cl)c3)c2-c2ccccc2)cc1 | – | > 100 µM | – | > 100 µM | – | > 100 µM | – | > 100 µM | – | > 100 µM | – | > 100 µM | – | > 100 µM | – | > 100 µM | – | > 100 µM | – | > 100 µM |
| CN(N=O)C(=O)N[C@@H](C=O)[C@@H](O)[C@H](O)[C@H](O)CO | > 750 µM | > 750 µM | > 750 µM | > 750 µM | > 750 µM | 640 µM and > 750 µM | > 750 µM | 653 µM and > 750 µM | > 750 µM | 666 µM and > 750 µM | > 750 µM | > 750 µM | > 750 µM | > 750 µM | > 750 µM | 612 µM and > 750 µM | > 750 µM | > 750 µM | > 750 µM | 631 µM and > 750 µM |
| CN(C)c1ccc(/C=C2\N=C(c3ccc([N+](=O)[O-])cc3)OC2=O)cc1 | – | > 100 µM | – | > 100 µM | – | > 100 µM | – | > 100 µM | – | 45.4 µM | – | > 100 µM | – | > 100 µM | – | > 100 µM | – | > 100 µM | – | > 100 µM |
| O=c1cccccc1NCCCCCCNc1cccccc1=O | – | > 100 µM | – | > 100 µM | – | > 100 µM | – | > 100 µM | – | > 100 µM | – | > 100 µM | – | > 100 µM | – | > 100 µM | – | > 100 µM | – | > 100 µM |
| CCOC(=O)C1=C(C)NC2SC(=O)/C(=C\c3ccccc3O)N2C1c1ccccc1 (stereo not given) | 28.6 µM | > 100 µM | 27.2 µM | > 100 µM | 23.2 µM | 72.8 µM | 23.6 µM | 63.6 µM | 30.5 µM | > 100 µM | 25 µM | 64.1 µM | 16.6 µM | 43.5 µM | 18.6 µM | 53.6 µM | 20.5 µM | 56.8 µM | 17.2 µM | 32.5 µM |
| CC(C)(C#N)c1cc(F)cc(C(=O)Nc2cc(Nc3ncccc3-c3ncnc4nc[nH]c34)ccc2F)c1 | > 10 µM | > 10 µM | 5.49 µM | > 10 µM | 0.109 µM | > 10 µM | 0.212 µM | > 10 µM | 3.59 µM | > 10 µM | 0.684 µM | > 10 µM | 1.73 µM | > 10 µM | 1.92 µM | > 10 µM | 0.0746 µM | > 10 µM | 0.635 µM | > 10 µM |
| Cc1cccc(C(=O)/C=C/SC(=NC#N)SCc2ccccc2)c1 | 19.1 µM | 40.5 µM | 23.7 µM | 67.7 µM | 33.6 µM | > 100 µM | 27.2 µM | > 100 µM | 39.1 µM | > 100 µM | 21.4 µM | 61.5 µM | 31.6 µM | > 100 µM | 4.06 µM | > 100 µM | 25.8 µM | 67 µM | 14.7 µM | 32.9 µM |
| CO/N=C(\C)c1cccc(Nc2cc(-c3ccccc3)nc3c(O)cccc23)c1 | 0.307 µM | 3.38 µM | 5.99 µM | 21.8 µM | 18.3 µM | 46.1 µM | 3.21 µM | 15.2 µM | 3.38 µM | 16.9 µM | 2.46 µM | 8.29 µM | 3.92 µM | 19.1 µM | 2.91 µM | 8.59 µM | 12.4 µM | 43.5 µM | 16.6 µM | 39.2 µM |
